Results taken from patent publication US6262084A, “Compounds that inhibit the binding of integrins to their receptors” (Texas Biotechnology Corporation, priority 1999, dated 2001).

Molecular target: T1, α4β1 integrin (Homo sapiens, UniProt P05556+P13612)
T1 construct: Ramos cells fluorescently labeled with calcein; endogenous in cells; host or cells: Ramos cells
Experiment: Inhibition of adhesion of calcein-labeled Ramos cells to CS1 (fibronectin) peptide-conjugated ovalbumin
Type: cell-based
Conditions: Table 1; for inhibition at 100 µM: Ramos, compound at a concentration of 100 μM, read-out: % A (percent inhibition of cell adhesion); for IC50: dose required to give 50% inhibition, Ramos cell adhesion to CS1-ovalbumin, 30 minutes at 37° C
Experimental: The ability of compounds of the present invention to inhibit binding is described in detail hereinafter in the Examples by a procedure in which a 26-amino acid peptide containing the CS1 sequence of fibroncctin with an N-terminal Cys was coupled to maleimide activated ovalbumin. Ovalbumin and CS1 conjugated ovalbumin were coated onto 96-well polystyrene plates at 5 μg/ml in TBS (50 mM Tris, pH 7.5; 150 mM NaCl) at 4° C. for 16 hours. The plates were washed three times with TBS and blocked with TBS containing 3% BSA at room temperature for 4 hours. Blocked plates were washed three times in binding buffer (TBS; 1 mM MgCl2; 1 mM CaCl2; 1 mM MnCl2) prior to assay. Ramos cells fluorescently labeled with calcein AMC-3099 were resuspended in binding buffer (10^7 cells/ml) and diluted 1:2 with same buffer with or without compound. The cells were added immediately to the wells (2.5×10^5 cells/well) and incubated for 30 minutes at 37° C. Following three washes with binding buffer, adherent cells were lysed and quantitated using a fluorometer.
IC50 is defined as the dose required to give 50% inhibition. The lower the IC50 value and the greater the percentage of inhibition, the more efficient the compound is at prevention of cell adhesion. A stands for inhibition in Table 1, and the percent inhibition indicates the inhibition of cell adhesion when compound is included in the assay at a concentration of 100 μM.

T1 sequence (P13612 34-1032): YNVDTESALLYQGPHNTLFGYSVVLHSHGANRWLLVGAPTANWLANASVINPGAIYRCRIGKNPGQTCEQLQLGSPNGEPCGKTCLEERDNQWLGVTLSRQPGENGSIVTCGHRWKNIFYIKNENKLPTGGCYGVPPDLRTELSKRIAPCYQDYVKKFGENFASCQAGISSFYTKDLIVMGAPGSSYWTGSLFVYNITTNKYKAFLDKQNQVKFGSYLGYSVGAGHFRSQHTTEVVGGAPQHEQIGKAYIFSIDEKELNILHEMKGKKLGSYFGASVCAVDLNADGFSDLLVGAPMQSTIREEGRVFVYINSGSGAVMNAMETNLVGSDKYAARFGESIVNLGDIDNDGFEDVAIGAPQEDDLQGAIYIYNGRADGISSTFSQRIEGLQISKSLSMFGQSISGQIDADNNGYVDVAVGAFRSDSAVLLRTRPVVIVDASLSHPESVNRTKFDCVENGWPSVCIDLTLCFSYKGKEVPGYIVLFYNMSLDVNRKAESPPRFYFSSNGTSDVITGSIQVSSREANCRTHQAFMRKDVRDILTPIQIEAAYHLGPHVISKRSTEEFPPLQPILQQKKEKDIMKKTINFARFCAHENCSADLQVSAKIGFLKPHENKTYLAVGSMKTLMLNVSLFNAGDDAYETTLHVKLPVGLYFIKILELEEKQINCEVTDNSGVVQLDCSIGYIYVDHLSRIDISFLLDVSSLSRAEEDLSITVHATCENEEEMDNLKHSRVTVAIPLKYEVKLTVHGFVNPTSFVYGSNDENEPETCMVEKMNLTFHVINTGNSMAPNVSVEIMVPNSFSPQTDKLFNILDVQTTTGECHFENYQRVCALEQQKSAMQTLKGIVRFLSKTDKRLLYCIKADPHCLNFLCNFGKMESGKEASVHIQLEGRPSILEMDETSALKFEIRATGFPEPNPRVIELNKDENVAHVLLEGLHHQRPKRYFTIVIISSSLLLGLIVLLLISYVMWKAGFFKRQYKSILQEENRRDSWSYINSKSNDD
T1 sequence (P05556 21-798): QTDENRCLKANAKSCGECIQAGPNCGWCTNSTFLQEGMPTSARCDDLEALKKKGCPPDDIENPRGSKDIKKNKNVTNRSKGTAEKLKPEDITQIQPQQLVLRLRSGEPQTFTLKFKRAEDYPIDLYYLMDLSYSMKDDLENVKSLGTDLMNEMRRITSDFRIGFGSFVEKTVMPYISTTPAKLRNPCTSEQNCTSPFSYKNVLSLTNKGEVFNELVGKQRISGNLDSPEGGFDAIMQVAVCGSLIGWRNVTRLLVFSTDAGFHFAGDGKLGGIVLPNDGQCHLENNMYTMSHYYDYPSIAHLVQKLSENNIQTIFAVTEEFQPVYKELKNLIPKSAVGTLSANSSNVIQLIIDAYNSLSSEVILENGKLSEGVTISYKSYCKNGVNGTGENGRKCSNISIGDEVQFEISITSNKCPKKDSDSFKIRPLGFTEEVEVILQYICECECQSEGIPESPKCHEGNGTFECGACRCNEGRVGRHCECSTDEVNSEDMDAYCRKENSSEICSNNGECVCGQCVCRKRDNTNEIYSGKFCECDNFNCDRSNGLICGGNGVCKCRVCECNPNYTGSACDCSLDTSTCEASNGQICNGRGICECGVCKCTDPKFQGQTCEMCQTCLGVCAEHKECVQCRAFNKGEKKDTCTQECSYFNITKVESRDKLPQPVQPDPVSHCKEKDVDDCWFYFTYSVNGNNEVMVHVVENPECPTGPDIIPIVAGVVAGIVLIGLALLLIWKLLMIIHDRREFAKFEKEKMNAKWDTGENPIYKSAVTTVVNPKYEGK

Row | inhibition at 100 µM | IC50 | Compound
1 | 100% | 400 nM | CSCC[C@@H](CSc1ccc(NS(=O)(=O)c2ccc(C)cc2)cc1)NC(=O)N[C@@H](CC(=O)O)c1ccc2c(c1)OCO2 [(3S)-3-(1,3-benzodioxol-5-yl)-3-[({[(1S)-1-{[(4-{[(4-methylphenyl)sulfonyl]amino}phenyl)sulfanyl]methyl}-3-(methylsulfanyl)propyl]amino}carbonyl)amino]propanoic acid]
2 | 100% | 20000 nM | CSCC[C@@H](COc1ccccc1)NC(=O)N[C@@H](CC(=O)O)c1ccc2c(c1)OCO2 [(3S)-3-(1,3-benzodioxol-5-yl)-3-[({[(1S)-3-(methylsulfanyl)-1-(phenoxymethyl)propyl]amino}carbonyl)amino]propanoic acid]
3 | 78% | 35000 nM | CSCC[C@@H](CSc1ccccc1)N(C)C(=O)N[C@@H](CC(=O)O)c1ccc2c(c1)OCO2 [(3S)-3-(1,3-benzodioxol-5-yl)-3-{[(methyl{(1S)-3-(methylsulfanyl)-1-[(phenylsulfanyl)methyl]propyl}amino)carbonyl]amino}propanoic acid]
4 | 100% | 6000 nM | CCCCC(CSc1ccccc1)OC(=O)N[C@@H](CC(=O)O)c1ccc2c(c1)OCO2 (stereo partly drawn) [(3S)-3-(1,3-benzodioxol-5-yl)-3-{[({1-[(phenylsulfanyl)methyl]pentyl}oxy)carbonyl]amino}propanoic acid]
5 | 99% | 1500 nM | O=C(O)C[C@H](NC(=O)NC(CSc1ccccc1)CSc1ccccc1)c1ccc2c(c1)OCO2 [(3S)-3-(1,3-benzodioxol-5-yl)-3-{[({2-(phenylsulfanyl)-1-[(phenylsulfanyl)methyl]ethyl}amino)carbonyl]amino}propanoic acid]
6 | 100% | 1000 nM | O=C(O)C[C@H](NC(=O)N[C@H](COCc1ccccc1)CSCc1ccccc1)c1ccc2c(c1)OCO2 [(3S)-3-(1,3-benzodioxol-5-yl)-3-{[({(1R)-2-(benzyloxy)-1-[(benzylthio)methyl]ethyl}amino)carbonyl]amino}propanoic acid]
7 | 100% | 10000 nM | O=C(O)C[C@H](NC(=O)O[C@H](COCc1ccccc1)CSCc1ccccc1)c1ccc2c(c1)OCO2 [(3S)-3-(1,3-benzodioxol-5-yl)-3-{[({(1R)-2-(benzyloxy)-1-[(benzylthio)methyl]ethyl}oxy)carbonyl]amino}propanoic acid]
8 | 100% | 12000 nM | CCSC[C@@H](COCc1ccccc1)OC(=O)N[C@@H](CC(=O)O)c1ccc2c(c1)OCO2 [(3S)-3-(1,3-benzodioxol-5-yl)-3-{[({(1R)-2-(benzyloxy)-1-[(ethylthio)methyl]ethyl}oxy)carbonyl]amino}propanoic acid]
9 | 100% | 400 nM | CCCC[C@@H](CSc1ccccc1)NC(=O)N[C@@H](CC(=O)O)c1ccc2c(c1)OCO2 [(3S)-3-(1,3-benzodioxol-5-yl)-3-{[({(1S)-1-[(phenylsulfanyl)methyl]pentyl}amino)carbonyl]amino}propanoic acid]
10 | 100% | 300 nM | CCCC[C@@H](CSc1ccc(NC(=O)Nc2ccccc2C)cc1)OC(=O)N[C@@H](CC(=O)O)c1ccc2c(c1)OCO2 [(3S)-3-(1,3-benzodioxol-5-yl)-3-{[({(1S)-1-[({4-[(2-toluidinocarbonyl)amino]phenyl}thio)methyl]pentyl}oxy)carbonyl]amino}propanoic acid]
11 | 100% | 300 nM | O=C(O)C[C@H](NC(=O)N[C@@H](COCc1ccccc1)CSc1ccccc1)c1ccc2c(c1)OCO2 [(3S)-3-(1,3-benzodioxol-5-yl)-3-{[({(1S)-2-(benzyloxy)-1-[(phenylthio)methyl]ethyl}amino)carbonyl]amino}propanoic acid]
12 | 100% | 20 nM | O=C(O)C[C@H](NC(=O)N[C@@H](CSCc1ccccc1)CSc1ccccc1)c1ccc2c(c1)OCO2 [(3S)-3-(1,3-benzodioxol-5-yl)-3-{[({(1S)-2-(benzylsulfanyl)-1-[(phenylsulfanyl)methyl]ethyl}amino)carbonyl]amino}propanoic acid]
13 | 100% | 3000 nM | O=C(O)C[C@H](NC(=O)O[C@@H](CSCc1ccccc1)CSc1ccccc1)c1ccc2c(c1)OCO2 [(3S)-3-(1,3-benzodioxol-5-yl)-3-{[({(1S)-2-(benzylthio)-1-[(phenylthio)methyl]ethyl}oxy)carbonyl]amino}propanoic acid]
14 | 100% | 50 nM | CCSC[C@@H](CSc1ccccc1)NC(=O)N[C@@H](CC(=O)O)c1ccc2c(c1)OCO2 [(3S)-3-(1,3-benzodioxol-5-yl)-3-{[({(1S)-2-(ethylsulfanyl)-1-[(phenylsulfanyl)methyl]ethyl}amino)carbonyl]amino}propanoic acid]
15 | 100% | 1000 nM | CCSC[C@@H](CSc1ccccc1)OC(=O)N[C@@H](CC(=O)O)c1ccc2c(c1)OCO2 [(3S)-3-(1,3-benzodioxol-5-yl)-3-{[({(1S)-2-(ethylthio)-1-[(phenylthio)methyl]ethyl}oxy)carbonyl]amino}propanoic acid]
16 | 100% | 100 nM | CSC[C@@H](CSc1ccccc1)NC(=O)N[C@@H](CC(=O)O)c1ccc2c(c1)OCO2 [(3S)-3-(1,3-benzodioxol-5-yl)-3-{[({(1S)-2-(methylsulfanyl)-1-[(phenylsulfanyl)methyl]ethyl}amino)carbonyl]amino}propanoic acid]
17 | 98% | 5000 nM | CCCCCCCCSC[C@@H](CSc1ccccc1)NC(=O)N[C@@H](CC(=O)O)c1ccc2c(c1)OCO2 [(3S)-3-(1,3-benzodioxol-5-yl)-3-{[({(1S)-2-(octylsulfanyl)-1-[(phenylsulfanyl)methyl]ethyl}amino)carbonyl]amino}propanoic acid]
18 | 100% | 4000 nM | O=C(O)C[C@H](NC(=O)O[C@@H](COCCc1ccccc1)CSc1ccccc1)c1ccc2c(c1)OCO2 [(3S)-3-(1,3-benzodioxol-5-yl)-3-{[({(1S)-2-(phenethyloxy)-1-[(phenylthio)methyl]ethyl}oxy)carbonyl]amino}propanoic acid]
19 | 100% | 500 nM | CCCSC[C@@H](CSc1ccccc1)NC(=O)N[C@@H](CC(=O)O)c1ccc2c(c1)OCO2 [(3S)-3-(1,3-benzodioxol-5-yl)-3-{[({(1S)-2-(phenylsulfanyl)-1-[(propylsulfanyl)methyl]ethyl}amino)carbonyl]amino}propanoic acid]
20 | 100% | 2000 nM | O=C(O)C[C@H](NC(=O)N[C@@H](CSCCCc1ccccc1)CSc1ccccc1)c1ccc2c(c1)OCO2 [(3S)-3-(1,3-benzodioxol-5-yl)-3-{[({(1S)-2-[(3-phenylpropyl)sulfanyl]-1-[(phenylsulfanyl)methyl]ethyl}amino)carbonyl]amino}propanoic acid]
21 | 100% | 2000 nM | O=C(O)CSC[C@@H](CSc1ccccc1)NC(=O)N[C@@H](CC(=O)O)c1ccc2c(c1)OCO2 [(3S)-3-(1,3-benzodioxol-5-yl)-3-{[({(1S)-2-[(carboxymethyl)sulfanyl]-1-[(phenylsulfanyl)methyl]ethyl}amino)carbonyl]amino}propanoic acid]
22 | 100% | 200 nM | O=C(O)C[C@H](NC(=O)N[C@@H](CSCC1CC1)CSc1ccccc1)c1ccc2c(c1)OCO2 [(3S)-3-(1,3-benzodioxol-5-yl)-3-{[({(1S)-2-[(cyclopropylmethyl)thio]-1-[(phenylthio)methyl]ethyl}amino)carbonyl]amino}propanoic acid]
23 | 100% | 5000 nM | CCOC[C@@H](CSc1ccccc1)OC(=O)N[C@@H](CC(=O)O)c1ccc2c(c1)OCO2 [(3S)-3-(1,3-benzodioxol-5-yl)-3-{[({(1S)-2-ethoxy-1-[(phenylthio)methyl]ethyl}oxy)carbonyl]amino}propanoic acid]
24 | 98% | 20000 nM | CC(C)[C@@H](CSCCc1ccccc1)NC(=O)N[C@@H](CC(=O)O)c1ccc2c(c1)OCO2 [(3S)-3-(1,3-benzodioxol-5-yl)-3-{[({(1S)-2-methyl-1-[(phenethylsulfanyl)methyl]propyl}amino)carbonyl]amino}propanoic acid]
25 | 98% | 10000 nM | Cc1ccc(S(=O)(=O)NC[C@@H](CSc2ccccc2)NC(=O)N[C@@H](CC(=O)O)c2ccc3c(c2)OCO3)cc1 [(3S)-3-(1,3-benzodioxol-5-yl)-3-{[({(1S)-2-{[(4-methylphenyl)sulfonyl]amino}-1-[(phenylthio)methyl]ethyl}amino)carbonyl]amino}propanoic acid]
26 | 100% | 3000 nM | CSCC[C@@H](CSc1ccccc1)NC(=S)N[C@@H](CC(=O)O)c1ccc2c(c1)OCO2 [(3S)-3-(1,3-benzodioxol-5-yl)-3-{[({(1S)-3-(methylsulfanyl)-1-[(phenylsulfanyl)methyl]propyl}amino)carbothioyl]amino}propanoic acid]
